Assay results taken from patent US8597660B2, “Therapeutic approach to neurodegenerative disorders using a TFP5-peptide” (The United States of America, as represented by the …, priority 2010, dated 2013).
Entries after “also recorded” stand apart in the source; their conditions may differ.

Legend:
[1] = test system: tau phosphorylation; assay: Aβ-induced tau phosphorylation in cortical neurons, Western blot; type: cell-based, rat; settings: Aβ 6 h
Description: Primary cultures of rat cortical neurons were prepared from E-18 rat fetuses as described previously (Zheng et al., J Biol Chem 278(26), 24026-24032, 2003). After 7 days, cells were infected independently or co-infected with empty vector (EV), the constructs of P5, P25, P35, wild-type Cdk5 and dominant negative Cdk5 (changing Lys33 to Thr33) using the Adenoviral vector (pAdTrack-CMV) packaging system as described above. […] The cells were fixed for immunocytochemistry analyses (ICC) or lysed with lysis buffer for immunoprecipitation and Western blot analyses. Cortical neuron cultures were prepared and plated on the cover slips as described. Human embryo kidney cells (HEK293) were grown as described previously (Zheng et al., Eur J Biochem 269(18), 4427-4434, 2002). In these studies HEK293 cells on day 1, or neurons on day 5, were transfected with or without Myc-P5-GFP using Lipofectamine 2000 following the manufacturer's instructions.
Western blot analysis was performed as previously described (Zheng et al., Eur J Biochem 269(18), 4427-4434, 2002). In brief, an equal amount of total protein (20 μg/lane) was resolved on a 4-20% SDS polyacrylamide gel and blotted onto a polyvinylidene difluoride membrane. This membrane was incubated in blocking buffer containing 20 mM Tris-HCl (pH 7.4), 150 mM NaCl, and 0.1% (vol/vol) Tween 20 (TTBS) plus 5% dry milk (w/v) for 1 hour at room temperature followed by incubation overnight at 4° C. in primary antibodies (see antibodies). The membranes were then washed four times in TTBS (5 minutes/each) followed by incubation in secondary antibody (goat-antimouse or goat anti-rabbit IgG (H+L)-horseradish peroxidase (HRP) conjugate at a dilution of 1:3000) for 1 hour at room temperature. Western blots were analyzed using the Amersham Enhanced Chemiluminescence (ECL) kit following the manufacturer's instructions (GE Healthcare, Piscataway, N.J.).
Amyloid plaques and neurofibrillary tangles, pathological hallmarks of several neurodegenerative disorders, are linked to deregulated Cdk5 and neuronal death. According to one model, β amyloid, being toxic, may evoke abnormal calcium influx into neurons which activates calpains. […] Hyperactivation of Cdk5, leads to the aberrant phosphorylation of tau and neurofilaments in a number of neurodegenerative diseases including AD and ALS. For example, primary cortical neurons, when treated with Aβ1-42 are induced to form Cdk5/P25 complexes, hyperactive Cdk5 activity, hyperphosphorylation of tau, and neuronal apoptosis. To determine whether P5 will inhibit endogenous tau phosphorylation induced by Aβ treatment in cortical neurons, 7 day old cortical neurons, infected with empty vector (EV) or with P5 were treated with Aβ for 6 hours, lysed and prepared for Cdk5 immunoprecipitation and kinase assay. Aβ treatment causes an approximate 3-fold increase in endogenous Cdk5 activity as visualized by histone H1 phosphorylation (FIG. 4A, panel 5, lane 2; FIG. 4B).
; FIG. 4D). […] Tau antibodies p-Ser404, PHF antibody AT180 (recognizes p-Thr231) and p-Ser422 antibodies were used to observe whether P5 affects other tau phosphorylation residues (FIGS. 4E, 4F). […]. Tau 5 recognizes total tau, nonphosphorylated as well as phosphorylated.

[2] = test system: cortical neurons; assay: TUNEL assay of Aβ-induced apoptosis in cortical neurons; type: cell-based, rat; settings: neurons transfected with GFP-P5, Aβ 6 h
Description: Primary cortical neuron cells were cultured for 5 days on glass coverslips coated with poly-L-lysine, and transfected with or without P5 using Lipofectamine 2000. After 24 hours, TUNEL staining was done according to the manufacturer's instructions. Cells were washed three times in PBS, fixed for 1 hour at room temperature in fresh 4% paraformaldehyde in PBS, and permeabilized (0.1% Triton X-100 in 0.1 sodium citrate) for 2 minutes on ice. After washing 2× with PBS, TUNEL reaction mixture (50 μl) was added and incubated in a humidified atmosphere at 37° C. for 1 hour. TUNEL staining and fluorescent images were visualized with a Zeiss LSM-510 laser-scanning confocal microscope. Images were processed and merged by Adobe Photoshop software.
To determine whether P5 inhibited neuronal apoptosis induced by Aβ, primary cortical neurons (5 days in culture (DIC)) were transfected with P5-GFP using Lipofectamine 2000. After 24 hours, cells were exposed to Aβ for 6 hours. The neurons were fixed and subjected to TUNEL staining, while P5 was visualized by (green fluorescent protein) GFP. […] The data are quantified in FIG. 5B. More than 85% of nontransfected neurons were apoptosis positive. […] Cortical neurons infected with or without P5 and treated with Aβ for 6 hours were assayed for cleaved caspase 3 by Western blot analysis (FIG. 5C). […]. […] The data are quantified in FIG. 5D.

Substance: P5: 24 residue peptide derived from Cdk5 activator P35 (K254-A277 of SEQ ID NO: 16); Cdk5 inhibitory peptide (KEAFWDRCLSVINLMSSKMLQINA; listed as Homo sapiens)
- Aβ-induced tau phosphorylation at Ser404 ([1]; P5 infection): reduces phosphorylation at Thr 231 and Ser404; also recorded: significantly inhibits tau phosphorylation at S404 and T231
- Aβ-induced tau phosphorylation at Thr231 (AT180) ([1]; P5 infection): reduces phosphorylation at Thr 231 and Ser404; also recorded: significantly inhibits tau phosphorylation at S404 and T231
- Aβ-induced tau phosphorylation at Ser422 ([1]; P5 infection or roscovitine): only a modest affect on Ser 422; also recorded: slight decrease of tau phosphorylation at the Ser422 site, is not significant
- Aβ-induced tau phosphorylation detected by AT8 and p-Ser199/202 antibodies ([1]; P5 infection or roscovitine): baseline levels of tau phosphorylation; also recorded: restoring it to basal levels
- Aβ-induced apoptosis (TUNEL) [2]: virtually all P5 transfected cells were protected from Aβ-induced apoptosis; also recorded: clearly inhibited Aβ-mediated neuronal apoptosis
